Reference: article PMC9590307, “Peptide ^Tat(48–60) YVEEL protects against necrotizing enterocolitis through inhibition of toll-like receptor 4-mediated signaling in a phosphatidylinositol 3-kinase/AKT dependent manner” (Frontiers in Nutrition, 2022)

Experiments:
Format in all cases: cell-based, human
[1] = system: TLR4-mediated signaling in FHC enterocytes; assay: qRT-PCR of IL-6 and COX-2 mRNA in LPS-treated enterocytes
[2] = system: TLR4-mediated signaling in FHC enterocytes; assay: Western blot of TLR4-mediated signaling in LPS-treated enterocytes
[3] = system: PI3K/AKT pathway in FHC enterocytes; assay: Western blot of PI3K and AKT phosphorylation; details: Ys49 2 and 5 μM with ^Tat(48–60) YVEEL 40 μM for 1 h, then LPS
Procedure: Cell pellets or intestinal tissues were lysed with RIPA buffer (Beyotime, China) for 20 min on ice and lysates were collected by centrifugation (13000 × g, 20 min at 4°C). Protein concentrations were quantified using the BCA Protein Assay (Thermo Fisher Scientific, USA) and equal amounts (20 μg) of protein lysates from each sample were separated by SDS-PAGE. Separated proteins were then transferred to PVDF membranes (Millipore, USA). Membranes were blocked with 5% skim milk or BSA and then incubated with the following primary antibodies: anti-TLR4 (Abcam, USA), anti-p-IκBα (Abcam, USA), anti-IκBα (Abcam, USA), anti-p-PI3K (Cell Signaling Technology, USA), anti-p-AKT (Cell Signaling Technology, USA), anti-PI3K (Cell Signaling Technology, USA), anti-AKT (Cell Signaling Technology, USA), anti-β-actin (Abcam, USA). Membranes were then incubated with species-matched HRP-conjugated secondary antibodies (Biosharp, China). Protein expressions were visualized using Immobilon® Western Chemiluminescent HRP Substrate (Millipore, USA) in accordance with the manufacturer’s protocol.

[4] = system: p65 subunit of NF-κB in FHC cells; assay: Immunofluorescence staining of NF-κB p65 nuclear translocation; details: Ys49 2 and 5 μM with peptide 40 μM for 1 h, then LPS
Procedure: FHC cells were fixed, washed and blocked, and then incubated with the following primary antibodies: anti-NF-κB p65 (Cell Signaling Technology, USA) and […]. The Alexa Fluor® 488-labeled goat anti-rabbit secondary antibody was used (Cell Signaling Technology, USA). FHC cells were counterstained with DAPI (Sigma-Aldrich, USA) and visualized using a fluorescence microscope (Zeiss, Germany).

FHC cells = assay: In vitro enterocyte migration (scratch wound); details: Ys49 2 and 5 μM with peptide 40 μM for 1 h, then LPS
Procedure: Cells were expected to reach a 100% confluence on the day of the experiment. Monolayers were scratched by a sterile pipette tip and washed for three times with pre-warmed 1 × PBS. The wounded monolayer of FHC or IEC-6 cells was imaged at indicated time using a microscope (Zeiss, Germany). The relative migration index of the cells was measured according to the area of the wound edge by Image J software (NIH Image, USA).

[5] = LY294002 10 μM in the absence or presence of ^Tat(48–60) YVEEL 40 μM, LPS
[6] = Ys49 2 and 5 μM with ^Tat(48–60) YVEEL 40 μM for 1 h, then LPS

O=c1cc(N2CCOCC2)oc2c(-c3ccccc3)cccc12 [LY294002]
TLR4-induced mRNA expression of COX-2 [1, 5]: reduced
TLR4-induced mRNA expression of IL-6 [1, 5]: reduced
TLR4 protein expression, inhibition in the presence of ^Tat(48–60) YVEEL ([2]; LY294002 10 μM plus ^Tat(48–60) YVEEL 40 μM, LPS): more significant
TLR4 protein expression ([2]; LY294002 10 μM, LPS): could inhibit

Oc1cc2c(cc1O)C(Cc1cccc3ccccc13)NCC2 (stereo not shown) [Ys49]
effect on protective effect of ^Tat(48–60) YVEEL on TLR4-mediated induction of pro-inflammatory cytokines (IL-6, COX-2 mRNA) [1, 6]: reversed
effect on ^Tat(48–60) YVEEL-induced reduction of TLR4 expression [2, 6]: notably reversed
effect on ^Tat(48–60) YVEEL-induced reduction of p-IκBα expression [2, 6]: notably reversed
effect on inhibitory effects of ^Tat(48–60) YVEEL on PI3K/AKT pathway [3]: significantly abolished
effect on blockage of TLR4-mediated cytoplasm-nucleus translocation of p65 by the peptide [4]: attenuated
effect on protective effect of ^Tat(48–60) YVEEL on enterocyte migration (FHC cells): attenuated
